Results published in US20160046618A1, “Cyclopropyl Fused Thiazin-2-Amine Compounds as Beta-Secretase Inhibitors and Methods of Use” (AMGEN INC., priority 2014, published 2016).
Each block holds one compound with its values, some of them ahead of it.

Tests used:
[1] = system: Aβ40 in conditioned medium of cells stably expressing Amyloid Precursor Protein (APP); assay: In vitro BACE-1 cell-based assay (Aβ40 sandwich ELISA); conditions: read-out: IC50 IP (μM) BACE1 cell
Procedure, shortened: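 Read-out: time-resolved fluorescence (Streptavidin-Europium) of Aβ40 captured by pAb40 and detected with biotinylated 6E10 from supernatants of APP-stable cells. Cells were exposed to compound for 24 h, 10-point dose response, top dose 100 μM or 10 μM, 0.1% DMSO. IC50 fitted to percent of control.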

human recombinant BACE1 = human recombinant BACE1 (Homo sapiens (Human), UniProt P56817); assay: In vitro enzymatic BACE1 FRET assay; assay type: biochemical; conditions: read-out: IC50 IP (μM) BACE1 enzyme
Procedure, shortened: (§1)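 Tris addition raises the pH to neutral to stop the reaction before fluorescence is measured at 590 nm emission with 488 nm excitation.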

Recombinant Cat D = Recombinant Cat D (Homo sapiens (Human), UniProt P07339); assay: In vitro enzymatic Cathepsin D (Cat D) FRET assay; assay type: biochemical; conditions: read-out: IC50 IP (μM) CatD
Procedure, shortened: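 Cleavage of a 20 nM fluorophore/quencher peptide by CHO-expressed recombinant Cat D proceeded for one hour at pH 3.5 (0.05 M citrate, 5 mM CHAPS, 10% DMSO final). Tris addition neutralized the pH to end the reaction. Fluorescence was then measured (ex 500 nm/em 580 nm).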

human recombinant BACE2 = human recombinant BACE2 (Homo sapiens (Human), UniProt Q9Y5Z0); assay: In vitro enzymatic BACE2 FRET assay; assay type: biochemical; conditions: read-out: IC50 IP (μM) BACE2 enzyme
Procedure, shortened: as §1

Chain of human recombinant BACE2 (Q9Y5Z0 63-518): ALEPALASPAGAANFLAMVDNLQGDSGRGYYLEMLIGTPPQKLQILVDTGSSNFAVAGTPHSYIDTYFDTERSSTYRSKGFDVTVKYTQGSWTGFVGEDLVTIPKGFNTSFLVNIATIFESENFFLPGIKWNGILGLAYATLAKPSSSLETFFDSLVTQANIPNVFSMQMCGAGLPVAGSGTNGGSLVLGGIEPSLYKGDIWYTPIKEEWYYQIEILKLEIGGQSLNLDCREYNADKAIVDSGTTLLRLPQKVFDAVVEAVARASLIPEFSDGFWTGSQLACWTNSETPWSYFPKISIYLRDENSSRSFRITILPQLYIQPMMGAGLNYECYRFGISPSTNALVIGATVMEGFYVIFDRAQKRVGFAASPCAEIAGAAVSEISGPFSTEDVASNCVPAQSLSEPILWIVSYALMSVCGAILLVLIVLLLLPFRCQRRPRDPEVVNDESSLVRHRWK
Chain of Recombinant Cat D (P07339 65-412): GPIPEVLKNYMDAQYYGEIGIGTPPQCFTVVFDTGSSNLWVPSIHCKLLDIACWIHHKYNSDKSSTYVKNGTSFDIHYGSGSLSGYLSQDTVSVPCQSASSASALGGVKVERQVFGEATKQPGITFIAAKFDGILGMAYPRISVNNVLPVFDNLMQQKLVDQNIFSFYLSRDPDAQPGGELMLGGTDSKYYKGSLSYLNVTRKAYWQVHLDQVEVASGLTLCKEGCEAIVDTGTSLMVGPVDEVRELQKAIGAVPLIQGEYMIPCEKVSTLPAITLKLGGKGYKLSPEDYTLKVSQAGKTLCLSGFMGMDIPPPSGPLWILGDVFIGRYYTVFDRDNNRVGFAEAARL
Chain of human recombinant BACE1 (P56817 46-501): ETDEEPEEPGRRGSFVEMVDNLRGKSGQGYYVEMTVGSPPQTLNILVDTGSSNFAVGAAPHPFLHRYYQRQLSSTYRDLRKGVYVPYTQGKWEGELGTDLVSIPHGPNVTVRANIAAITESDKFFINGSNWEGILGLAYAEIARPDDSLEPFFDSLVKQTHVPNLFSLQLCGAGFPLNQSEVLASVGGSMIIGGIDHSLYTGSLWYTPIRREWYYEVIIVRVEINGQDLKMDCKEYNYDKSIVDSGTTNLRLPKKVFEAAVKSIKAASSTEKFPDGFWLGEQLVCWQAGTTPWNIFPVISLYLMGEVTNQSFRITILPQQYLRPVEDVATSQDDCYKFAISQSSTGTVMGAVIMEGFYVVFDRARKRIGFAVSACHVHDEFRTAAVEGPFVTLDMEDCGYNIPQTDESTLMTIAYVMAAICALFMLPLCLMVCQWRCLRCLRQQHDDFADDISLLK

Structure (SMILES): C#CCOc1cnc2c(Nc3ccc(F)c([C@@]4(C)N=C(N)S[C@@]5(C(=O)NC6CC6)C[C@H]54)c3)ncnc2c1 [Example 791, (1S,5S,6S)-3-amino-N-cyclopropyl-5-(2-fluoro-5-((7-(2-propyn-1-yloxy)pyrido[3,2-d]pyrimidin-4-yl)amino)phenyl)-5-methyl-2-thia-4-azabicyclo[4.1.0]hept-3-ene-1-carboxamide]
IC50 [1]: 0.00183 µM
IC50 (human recombinant BACE1): 0.000658 µM
IC50 (Recombinant Cat D): 317 µM
IC50 (human recombinant BACE2): 0.0712 µM

Structure (SMILES): C[C@]1(c2cc(Nc3nccc4nc(OCc5ncco5)cnc34)ccc2F)N=C(N)S[C@@]2(C(=O)NC3CC3)C[C@H]21 [Example 796, (1S,5S,6S)-3-amino-N-cyclopropyl-5-(2-fluoro-5-((2-(1,3-oxazol-2-ylmethoxy)pyrido[3,4-b]pyrazin-5-yl)amino)phenyl)-5-methyl-2-thia-4-azabicyclo[4.1.0]hept-3-ene-1-carboxamide]
IC50 [1]: 0.00354 µM
IC50 (human recombinant BACE1): 0.000859 µM
IC50 (Recombinant Cat D): 543 µM
IC50 (human recombinant BACE2): 0.0628 µM

Structure (SMILES): COC[C@]12C[C@H]1[C@@](C)(c1cc(Nc3ncnc4cc(OCc5ncco5)cnc34)cc(F)c1F)N=C(N)S2 [Example 809, N-(3-((1S,5S,6S)-3-amino-1-(methoxymethyl)-5-methyl-2-thia-4-azabicyclo[4.1.0]hept-3-en-5-yl)-4,5-difluorophenyl)-7-(1,3-oxazol-2-ylmethoxy)pyrido[3,2-d]pyrimidin-4-amine]
IC50 [1]: 0.00181 µM
IC50 (human recombinant BACE1): 0.000974 µM
IC50 (Recombinant Cat D): 123 µM
IC50 (human recombinant BACE2): 0.0358 µM

Structure (SMILES): C[C@]1(c2cc(NC(=O)c3cnc(OCc4ncco4)cn3)cc(F)c2F)N=C(N)S[C@@]2(CF)C[C@H]21 [Example 811, N-(3-((1S,5S,6S)-3-amino-1-(fluoromethyl)-5-methyl-2-thia-4-azabicyclo[4.1.0]hept-3-en-5-yl)-4,5-difluorophenyl)-5-(1,3-oxazol-2-ylmethoxy)-2-pyrazinecarboxamide]
IC50 [1]: 0.00126 µM
IC50 (human recombinant BACE1): 0.000676 µM
IC50 (Recombinant Cat D): 297 µM
IC50 (human recombinant BACE2): 0.0207 µM

Structure (SMILES): C#CCOc1cnc2c(Nc3ccc(F)c([C@@]4(C)N=C(N)S[C@@]5(C(F)F)C[C@@H]45)c3)nccc2n1 [Example 816, N-(3-((1S,5S,6S)-3-amino-1-(difluoromethyl)-5-methyl-2-thia-4-azabicyclo[4.1.0]hept-3-en-5-yl)-4-fluorophenyl)-2-(2-propyn-1-yloxy)pyrido[3,4-b]pyrazin-5-amine]
IC50 [1]: 0.00122 µM
IC50 (human recombinant BACE1): 0.000244 µM
IC50 (Recombinant Cat D): 73.6 µM
IC50 (human recombinant BACE2): 0.0183 µM

Structure (SMILES): C[C@]1(c2cc(Nc3nccc4nc(OCc5ncco5)cnc34)ccc2F)N=C(N)S[C@@]2(C(F)F)C[C@@H]12 [Example 817, N-(3-((1S,5S,6S)-3-amino-1-(difluoromethyl)-5-methyl-2-thia-4-azabicyclo[4.1.0]hept-3-en-5-yl)-4-fluorophenyl)-2-(1,3-oxazol-2-ylmethoxy)pyrido[3,4-b]pyrazin-5-amine]
IC50 [1]: 0.00171 µM
IC50 (human recombinant BACE1): 0.000706 µM
IC50 (Recombinant Cat D): 124 µM
IC50 (human recombinant BACE2): 0.0319 µM

Structure (SMILES): C#CCOc1cnc2c(Nc3ccc(F)c([C@@]4(C)N=C(N)S[C@@]5(C(F)F)C[C@@H]45)c3)ncnc2c1 [Example 819, N-(3-((1S,5S,6S)-3-amino-1-(difluoromethyl)-5-methyl-2-thia-4-azabicyclo[4.1.0]hept-3-en-5-yl)-4-fluorophenyl)-7-(2-propyn-1-yloxy)pyrido[3,2-d]pyrimidin-4-amine]
IC50 [1]: 0.00175 µM
IC50 (human recombinant BACE1): 0.000821 µM
IC50 (Recombinant Cat D): 34.2 µM
IC50 (human recombinant BACE2): 0.0412 µM

Structure (SMILES): C#CCOc1cnc2c(Nc3ccc(F)c([C@@]4(C)N=C(N)S[C@@]5(CF)C[C@H]54)c3)ncnc2c1 [Example 824, N-(3-((1S,5S,6S)-3-amino-1-(fluoromethyl)-5-methyl-2-thia-4-azabicyclo[4.1.0]hept-3-en-5-yl)-4-fluorophenyl)-7-(2-propyn-1-yloxy)pyrido[3,2-d]pyrimidin-4-amine]
IC50 [1]: 0.00128 µM
IC50 (human recombinant BACE1): 0.00299 µM
IC50 (Recombinant Cat D): 1840 µM
IC50 (human recombinant BACE2): 0.0842 µM

Structure (SMILES): C[C@]1(c2cc(Nc3nccc4nc(OCc5ncco5)cnc34)ccc2F)N=C(N)S[C@@]2(CF)C[C@H]21 [Example 825, N-(3-((1S,5S,6S)-3-amino-1-(fluoromethyl)-5-methyl-2-thia-4-azabicyclo[4.1.0]hept-3-en-5-yl)-4-fluorophenyl)-2-(1,3-oxazol-2-ylmethoxy)pyrido[3,4-b]pyrazin-5-amine]
IC50 [1]: 0.00111 µM
IC50 (human recombinant BACE1): 0.00357 µM
IC50 (Recombinant Cat D): 526 µM
IC50 (human recombinant BACE2): 0.0542 µM

More lines, now with the values ahead:

IC50 [1]: 0.000971 µM
IC50 (human recombinant BACE1): 0.00075 µM
IC50 (Recombinant Cat D): 134 µM
IC50 (human recombinant BACE2): < 0.00203 µM
Structure (SMILES): C[C@]1(c2cc(NC(=O)c3ccc(Cl)cn3)ccc2F)N=C(N)S[C@@]2(C(=O)NC3CC3)C[C@H]21 [Example 792, (1S,5S,6S)-3-amino-5-(5-(((5-chloro-2-pyridinyl)carbonyl)amino)-2-fluorophenyl)-N-cyclopropyl-5-methyl-2-thia-4-azabicyclo[4.1.0]hept-3-en-1-carboxamide]

IC50 [1]: 0.0153 µM
IC50 (human recombinant BACE1): 0.000293 µM
IC50 (Recombinant Cat D): 482 µM
IC50 (human recombinant BACE2): 0.00477 µM
Structure (SMILES): C#CCOc1ccc(C(=O)Nc2ccc(F)c([C@@]3(CF)N=C(N)S[C@@]4(c5ccon5)C[C@@H]34)c2)nc1 [Example 793, N-(3-((1S,5S,6S)-3-amino-5-(fluoromethyl)-1-(3-isoxazolyl)-2-thia-4-azabicyclo[4.1.0]hept-3-en-5-yl)-4-fluorophenyl)-5-(2-propyn-1-yloxy)-2-pyridinecarboxamide]

IC50 [1]: 0.0012 µM
IC50 (human recombinant BACE1): 0.000846 µM
IC50 (Recombinant Cat D): 316 µM
IC50 (human recombinant BACE2): 0.0397 µM
Structure (SMILES): C#CCOc1cnc2c(Nc3ccc(F)c([C@@]4(C)N=C(N)S[C@@]5(C(=O)NC6CC6)C[C@H]54)c3)nccc2n1 [Example 794, (1S,5S,6S)-3-amino-N-cyclopropyl-5-(2-fluoro-5-((2-(2-propyn-1-yloxy)pyrido[3,4-b]pyrazin-5-yl)amino)phenyl)-5-methyl-2-thia-4-azabicyclo[4.1.0]hept-3-ene-1-carboxamide]

IC50 [1]: 0.0211 µM
IC50 (human recombinant BACE1): 0.00452 µM
IC50 (Recombinant Cat D): 147 µM
IC50 (human recombinant BACE2): < 0.00203 µM
Structure (SMILES): CC(C)(C)NC(=O)[C@]12C[C@H]1[C@@](C)(c1cc(NC(=O)c3ccc(Cl)cn3)ccc1F)N=C(N)S2 [Example 797, (1S,5S,6S)-3-amino-N-tert-butyl-5-(5-(((5-chloro-2-pyridinyl)carbonyl)amino)-2-fluorophenyl)-5-methyl-2-thia-4-azabicyclo[4.1.0]hept-3-ene-1-carboxamide]

IC50 [1]: 0.000715 µM
IC50 (human recombinant BACE1): 0.000294 µM
IC50 (Recombinant Cat D): 4.72 µM
IC50 (human recombinant BACE2): 0.0272 µM
Structure (SMILES): C#CCOc1cnc(C(=O)Nc2ccc(F)c([C@@]3(C)N=C(N)S[C@@]4(C(=O)NC(C)(C)C)C[C@H]43)c2)cn1 [Example 798, (1S,5S,6S)-3-amino-N-tert-butyl-5-(2-fluoro-5-(((5-(2-propyn-1-yloxy)-2-pyrazinyl)carbonyl)amino)phenyl)-5-methyl-2-thia-4-azabicyclo[4.1.0]hept-3-ene-1-carboxamide]

IC50 [1]: 0.00075 µM
IC50 (human recombinant BACE1): 0.000382 µM
IC50 (Recombinant Cat D): 349 µM
IC50 (human recombinant BACE2): 0.015 µM
Structure (SMILES): C[C@]1(c2cc(NC(=O)c3cnc(OCc4ncco4)cn3)ccc2F)N=C(N)S[C@@]2(C(=O)NC3CC3)C[C@H]21 [Example 799, (1S,5S,6S)-3-amino-N-cyclopropyl-5-(2-fluoro-5-(((5-(1,3-oxazol-2-ylmethoxy)-2-pyrazinyl)carbonyl)amino)phenyl)-5-methyl-2-thia-4-azabicyclo[4.1.0]hept-3-ene-1-carboxamide]

IC50 [1]: 0.00659 µM
IC50 (human recombinant BACE1): 0.000711 µM
IC50 (Recombinant Cat D): 293 µM
IC50 (human recombinant BACE2): 0.0841 µM
Structure (SMILES): C[C@]1(c2cc(NC(=O)c3cnc(OCC(F)(F)F)cn3)ccc2F)N=C(N)S[C@@]2(C(=O)NC3CC3)C[C@H]21 [Example 800, (1S,5S,6S)-3-amino-N-cyclopropyl-5-(2-fluoro-5-(((5-(2,2,2-trifluoroethoxy)-2-pyrazinyl)carbonyl)amino)phenyl)-5-methyl-2-thia-4-azabicyclo[4.1.0]hept-3-ene-1-carboxamide]

IC50 [1]: 0.00164 µM
IC50 (human recombinant BACE1): 0.000587 µM
IC50 (Recombinant Cat D): 152 µM
IC50 (human recombinant BACE2): < 0.00203 µM
Structure (SMILES): C[C@]1(c2cc(NC(=O)c3ccc(Cl)cn3)ccc2F)N=C(N)S[C@@]2(C(F)F)C[C@@H]12 [Example 818, N-(3-((1S,5S,6S)-3-amino-1-(difluoromethyl)-5-methyl-2-thia-4-azabicyclo[4.1.0]hept-3-en-5-yl)-4-fluorophenyl)-5-chloro-2-pyridinecarboxamide]

IC50 [1]: 0.000495 µM
IC50 (human recombinant BACE1): 0.000319 µM
IC50 (Recombinant Cat D): 60.4 µM
IC50 (human recombinant BACE2): 0.0162 µM
Structure (SMILES): C#CCOc1cnc(C(=O)Nc2ccc(F)c([C@@]3(C)N=C(N)S[C@@]4(C(F)F)C[C@@H]34)c2)cn1 [Example 820, N-(3-((1S,5S,6S)-3-amino-1-(difluoromethyl)-5-methyl-2-thia-4-azabicyclo[4.1.0]hept-3-en-5-yl)-4-fluorophenyl)-5-(2-propyn-1-yloxy)-2-pyrazinecarboxamide]

IC50 [1]: 0.00428 µM
IC50 (human recombinant BACE1): 0.00298 µM
IC50 (Recombinant Cat D): 1170 µM
IC50 (human recombinant BACE2): < 0.00203 µM
Structure (SMILES): C[C@]1(c2cc(NC(=O)c3ccc(Cl)cn3)ccc2F)N=C(N)S[C@@]2(CF)C[C@H]21 [Example 821, N-(3-((1S,5S,6S)-3-amino-1-(fluoromethyl)-5-methyl-2-thia-4-azabicyclo[4.1.0]hept-3-en-5-yl)-4-fluorophenyl)-5-chloro-2-pyridinecarboxamide]
